Measurements published in article PMC9346113, “Therapeutic impact of BET inhibitor BI 894999 treatment: backtranslation from the clinic” (British Journal of Cancer, 2022).

Experiments:
HEXIM1 and HIST2H2BF = assay: Nanostring analysis of pathway modulation markers in patient blood; format: in vivo; conditions: patients
Description: (§1) Schedule B (NCT02516553): daily oral treatment from Day 1 to Day 14 at 2.5 mg/day followed by a week-off in 3-week cycles. Schedule C (NCT02516553): one week-on, one week-off treatment, repeated every two weeks in 4-week cycles with, at each treatment week, a loading dose (6 mg) on Day 1 followed by a maintenance dose (3 mg per day) on the following 6 days.
Total RNA was extracted from whole blood using PAXgene Blood RNA kit (Qiagen) following the manufacturers’ instructions. Total RNA was quantified by direct absorbance measurement at 260 nm using a NanoDrop Spectrophotometer. Quality check was performed by additional measurement of absorbance at 280 nm and calculation of the absorbance ratio OD260/OD280.
mRNA expression was assessed using a custom NanoString nCounter codeset generated for the genes of interest plus housekeeping genes. In brief, probes were hybridised to 150 ng of total RNA for 19 h at 65 °C and applied to the nCounter™ Preparation Station for automated removal of excess probe and immobilisation of probe‐transcript complexes on a streptavidin‐coated cartridge. Data was collected using the nCounter™ Digital Analyzer by counting the individual barcodes.
Data were analysed using an in-house analysis pipeline that follows the latest Nanostring Technologies standards for the analysis of nCounter data. The analysis pipeline includes QC of the raw data using the NACHO [26]. The housekeeping genes ACTB, GAPDH, HPRT1, MGAT1 and TMED9 were used for normalisation. After normalisation expression values were exported and used for figure generation using […] [27].

10326 BRD3-NUT = assay: Cell proliferation assay (Alamar readout), 10326; format: cell-based, human; conditions: Homo sapiens, 96h, read-out: geomean GI50
Description: (§2) The NUT Carcinoma cell line Ty-82 was purchased from JCRB Japan No. 1330 and cultivated in RPMI 1640 supplemented with 10% fetal calf serum (FCS). The NC cell lines 10–15, 14169 and 10326 were in-licensed from Christopher French, Brigham & Womens Hospital, Boston, and were cultivated in DMEM supplemented with glutamax and 10% FCS.
(§3) Viability assays were performed on 96-well flat-bottom microtiter plates and incubated with Alamar Blue solution (Invitrogen, Carlsbad, US-CA). The effects of drug combinations were analysed using the Bliss Independence Model.
(§4) Dose response curves (96h cell proliferation assay - Alamar readout) on four NC cell lines with BET inhibitor BI 894999. Yellow bar: readout t zero (before adding of compound). Green bar: DMSO control (max proliferation).
(§5) Dose response curves (96h cell proliferation assay - Alamar readout) on four NC cell lines with multiple BET inhibitors.

BRD4-BD1 = BRD4-BD1 (Homo sapiens, UniProt O60885); assay: BRD4 AlphaLISA assay, BRD4-BD1; format: binding; conditions: displacement of acetyl-histone H4 peptide (Lys5, 8, 12, 16)
Excerpt: (§6) This bead-based proximity assay is based on the competitive displacement of a histone peptide (acetyl-histone H4/Lys5, 8, 12, 16) from the human bromodomain [22].

Ki67 = assay: IHC of 10326 xenograft tumours, Ki67; format: in vivo, mice; conditions: day 21, BI 894999 monotherapy 2 mg/kg
Description: Immunohistochemistry was performed on formalin-fixed, paraffin-embedded tumour tissue using antibodies against human Ki67(Cell Signaling #9027, 1:400 dilution), anti-human mitochondria (Abcam ab92824, 1:1000 dilution) and against endogenous NUT protein (Cell Signaling #3625, 1:50 dilution) used to detect NUT fusion proteins. Digital images of whole tissue sections were acquired using a Leica SCN400 histology scanner (Leica Microsystems). Ki67-positive index was evaluated using Halo Software V. 3.2 (Indica lab). Regions of interest (ROIs) within the tissue sections were first identified using Halo Software via machine learning technology across pathological samples and tissue control, within these ROIs, nuclei were detected and classified as positive or negative based on IHC staining thresholds.
Quantification of Ki67 staining in NC 10326 tumor sections after treatment with BI 894999, CCS1477, or the combination thereof.

[1] = test system: 10326 xenograft (BRD3-NUT); assay: 10326 NC xenograft model; format: in vivo; conditions: 2 mg/kg BI 894999
Excerpt: (§7) Mice were group-housed (8–10 mice per cage) under pathogen-free and controlled environmental conditions (21 ± 1.5 C temperature, 55 ± 10% humidity) in an AAALAC accredited facility and handled according to the institutional, governmental and European Union guidelines (Austrian Animal Protection Laws, GV-SOLAS and FELASA guidelines). Animal studies were approved by the internal ethics committee and the local government committee. Mice were 6- to 8-week-old female CIEA NOG purchased from Taconic, Denmark (NOD.Cg-Prkdc^scid Il2rg^tm1Sug/JicTac). 5 × 10^6 NC tumour cells were injected subcutaneously into the right flank of the mice (1 site per mouse). Mice were randomly distributed between the treatment and the vehicle control when tumours were well established and had reached volumes of 100–150 mm^3. Compounds were suspended in 0.5% Natrosol and administered once daily intra-gastral by gavage needle. Tumour diameters were measured three times a week with a calliper. […] Within each subtopic the p-values of the efficacy parameters were adjusted for multiple comparisons according to Bonferroni–Holm. The p-values of the tolerability parameter remained unadjusted in order not to overlook a possible adverse effect. The level of significance was fixed at α = 5%. An adjusted p-value of less than 0.05 was considered to show a statistically significant difference between the groups. The statistical evaluation was prepared using the software Graph Pad Prism.

BRD4-BD2 = BRD4-BD2 (Homo sapiens, UniProt O60885); assay: BRD4 AlphaLISA assay, BRD4-BD2; format: binding; conditions: displacement of acetyl-histone H4 peptide (Lys5, 8, 12, 16)
Excerpt: as §6

NC cell lines = assay: Cell proliferation assays, all four NC lines (summary); format: cell-based, human
Description: as §2, §3

[2] = Plasma pharmacokinetics in patients (NCT02516553); format: in vivo
Description: as §1

14169 BRD4-NUT = assay: Cell proliferation assay (Alamar readout), 14169; format: cell-based, human; conditions: Homo sapiens, 96h, read-out: geomean GI50
Description: as §2, §3, §4, §5

[3] = test system: Ty-82 xenograft (BRD4-NUT); assay: Ty-82 NC xenograft model; format: in vivo, mice; conditions: 2 mg/kg BI 894999 p.o. daily
Excerpt: as §7

[4] = test system: 10–15 xenograft (BRD4-NUT); assay: 10–15 NC xenograft model; format: in vivo, mice; conditions: 2 mg/kg BI 894999
Excerpt: as §7

[5] = PK analysis in mouse plasma; format: in vivo; conditions: CIEA NOG (NOD.Cg-Prkdc^scid Il2rg^tm1Sug/JicTac), po, mice, 2 mg/kg p.o.
Excerpt: PK analysis in mouse plasma. Oral treatment at the indicated doses. Sampling at the indicated timepoints.

Ty-82 BRD4-NUT = assay: Cell proliferation assay (Alamar readout), Ty-82; format: cell-based, human; conditions: Homo sapiens, TY82, 96h, read-out: geomean GI50
Description: as §2, §3, §4, §5

[6] = GI50, depending on the NC cell line

CNc1nc(-c2nc3ccc(N4CCN(C)CC4)cc3n2Cc2ccccc2)cn2c(C)nnc12 [BI 894999]
pharmacodynamic modulation of HEXIM1 and HIST2H2BF (HEXIM1 and HIST2H2BF; Schedule B 2.5 mg): max. two-fold
PD modulation of HEXIM1 and HIST2H2BF (HEXIM1 and HIST2H2BF; Schedule C 6/3 mg, maximum): up to four-fold
PD modulation of HEXIM1 and HIST2H2BF still measurable (HEXIM1 and HIST2H2BF; Schedule C, 23.5 h after drug application): two-fold
GI50 (10326 BRD3-NUT): 1.2 nM
IC50 (BRD4-BD1): 5 ± 3 nM
cell proliferation as assessed by Ki67 levels (Ki67): reduced cell proliferation
TGI [1]: 99%
IC50 (BRD4-BD2): 41 ± 30 nM
fold more potent than JQ1 and GSK525762 (NC cell lines; [6]): 40–60 fold
more potent than the dual BET/p300 inhibitor NEO2734 (NC cell lines; [6]): 10–20
GI50 (NC cell lines; Homo sapiens, TY82, Ty-82, 10–15, 14169, 10326, read-out: GI50 (geomean), range over all NC lines): 0.9 to 2.6 nM
Cmax ([2]; Schedule C, 6 mg loading/3 mg maintenance, Day 1, 19 patients, read-out: maximal plasma concentration (mean Cmax)): ~20 nM
Cmax ([2]; human, plasma, oral, 2.5 mg, Schedule B, 2.5 mg daily, Day 1, 55 patients, read-out: maximum plasma concentration (mean Cmax)): 5 nM
Cmax ([2]; human, plasma, oral, 6 mg, Schedule C, 6 mg loading/3 mg maintenance, Day 1, 19 patients, read-out: maximal plasma concentration (mean Cmax)): 19 nM
GI50 (14169 BRD4-NUT): 0.9 nM
TGI (tumour growth inhibition) [3]: 5%
TGI [4]: 40%
Cmax [5]: 10 nM
GI50 (Ty-82 BRD4-NUT): 2.6 nM
